Source: patent publication US4990538A, “Use of toremifene and its metabolites for the reversal of multidrug resistance of cancer cells against cytotoxic drugs” (priority 1989, dated 1991)
Entries after “also recorded” stand apart in the source; their conditions may differ.

Assays:
HOV-007 = assay: Number of living cells (bioluminescence), ovarian cancer line HOV-007; settings: doxorubicin 0 μg/ml, 3 days
Procedure: (§1) Two human ovarian cell lines were established in vitro from fresh serous ovarian cancer tissues. The lines are coded HOV-007 and HOV-018. The cells were cultivated in Eagle's MEM containing 1% unstripped foetal calf serum. The assays were carried out at 37° C. in 5% CO2 on 96 well plates.
presented. Number of cells was quantitated after 3 days'

in vitro [1] = settings: hamster, cho-adr cells
Procedure: (§4) Initial cell growth studies were carried out to investigate the effect of combination toremifene +doxorubicin in doxorubicin sensitive and resistant cells. Cell cultures were carried out using wild type CHO-K1 cells as well as CHO-Adr cells, the latter being selected by a series of step-wise selections of doxorubicin resistant clones in presence of 0.4 ug/ml of doxorubicin. […] The resistant cells were stable in cell culture in the absence of doxorubicin. Both cell lines were cultivated in Hams F10 medium supplemented with 5% newborn calf serum, 5% foetal calf serum, antibiotics and 3mM glutamine. The cells were maintained as monolayer cultures 37° C. under 5% CO2. Drug sensitivity in CHO-K1and CHO-Adr cells was assessed by a semi-automated colorimetric MTT assay. The assay is dependent on the cellular reduction of MTT (3-U4,5-dimethylthiazol-2-ylA-2,5-diphenyl tertazolium bromide, thiazolyl blue) by the mitochondrial dehydrogenase of viable cells to a blue formazan product which was measured spectrophotometrically. The cells were seeded on 96-well plates and allowed to settle for 12 hours at 37° C. in 5% CO2. Appropriate drug concentrations diluted in growth medium were added for 24 hours. Toremifene was dissolved in 95% ethanol stock solution, doxorubicin stock solution was prepared in water. […] The cells were incubated with the drugs for 24 hours, after which the cells were washed twice with phosphate buffered saline before being placed in 200 μl fresh medium for a further 48 hours. At the end of this incubation 0.1 mg MTT was added to each well and incubated for 4 hours. The medium was carefully aspirated and the crystals were solubilised in 100 μ l DMSO (dimethyl sulfoxide). Absorbances at 540 nm were read immediately on an ELISA Multiskan reader. The results were expressed as a percentage of absorbance of drug treated cells compared to controls.
(§5) The effect of AAG in the concentration of 0.1 to 2 mg/ml was assessed on the potentiation produced by toremifene.

[2] = cited from earlier work
HOV-018 = assay: Number of living cells (bioluminescence), ovarian cancer line HOV-018; settings: doxorubicin 0 μg/ml
Procedure: as §1

Human melanoma UV-me-1 = assay: Toremifene and doxorubicin in human melanoma UV-me-1; settings: doxorubicin 0 μg/ml, 2 days, control 100
[3] = tested on: α1 -acid glycoprotein (AAG); settings: cited from earlier work
MCF-7/DOX cells = assay: Inhibition of cell growth / reversal of MDR in MCF-7/DOX cells (methylene blue); type: cell-based, human; settings: for Inhibition of cell growth, Actual: 2880 min
Procedure: The cells were cultivated in 100 ul volumes in 96-well microtiter plates. The principle of the method was to cultivate cells in the presence of the drugs/ drug combinations for 48 hours. After this time the living cells were stained with methylene blue and quantitated spectrophotometrically using microtiter plate reader (Titertek Model MCC/340) interfaced to an Apple IIe computer. Inhibition of the cell growth is expressed as a percentage of absorbance of vehicle treated control cultures.

MCF-7/DOX = assay: Sensitization of MCF-7/DOX by patients' plasma ultrafiltrate; type: cell-based, human; settings: FIG. 8
Procedure: Cells were growth in Corning 75-cm^2 tissue flasks and were maintained in exponential growth using RPMI 1640 medium supplemented with 5% fetal bovine serum in 5% CO2 and 95% air. […] The cells were cultivated in 100 ul volumes in 96-well microtiter plates. The principle of the method was to cultivate cells in the presence of the drugs/ drug combinations for 48 hours. After this time the living cells were stained with methylene blue and quantitated spectrophotometrically using microtiter plate reader (Titertek Model MCC/340) interfaced to an Apple IIe computer. Inhibition of the cell growth is expressed as a percentage of absorbance of vehicle treated control cultures. Human plasma samples were obtained from patients participating clinical phase I studies receiving 10, 20, 40, 60, 200 or 400 mg toremifene daily for eight weeks. Ultrafiltrate from the plasma was prepared by placing plasma specimens in Amicon CF-10 filters (MW cutoff 10 000) followed by centrifugation at 5000×g for 20 minutes. The ultrafiltrates were used in order to study if the concentrations achieved clinically were able to sensitize MCF-7/DOX. Part of the growth medium was replaced by plasma ultrafiltrate and the cells were allowed to grow for 4 days, at which time they were stained and quantitated as described above.

CHO-K1 cells [4] = assay: MTT cell viability assay in wild-type CHO-K1 cells
Procedure: as §4, §5

B-16 melanoma = assay: Schedule dependency of antitumor effect in B-16 melanoma; settings: toremifene 150 mg/kg p.o. days 1-5
Procedure: (§2) Lewis Lung (LL) or melanoma B-16 tumor cells, 2×10^6 cells/animal, were inoculated intramuscularly to female C-57 mice. Tumors were allowed to grow to the mean diameter of 1.5 cm after which toremifene/doxorubicin treatments were started as indicated in the next tables. Tumor size was measured before treatment and after 10 days in 2 dimensions and the mean was considered as tumor diameter. Weight of the animals was also recorded.

in vitro [5] = settings: hamster, cho-k1 cells
Procedure: as §4, §5

CHO-Adr cells = assay: MTT cell viability assay in doxorubicin resistant CHO-Adr cells
Procedure: as §4, §5

[6] = mouse, in vivo
Procedure: (§3) Pieces of fresh human tumors were implanted under the outer capsule of mouse kidney. Mice were treated with different combinations of cytotoxic drugs (doses preselected according to toxicity of each combination), with or without toremifene (150 mg/kg p.o.). Control animals received saline injections. The drugs were given on five consecutive days after the inoculation of the tumors. The sizes of the tumor pieces were measured by stereo microscope equipped with ocular micrometer immediately after inoculation (initial size) and on the sixth day when the animals were killed (final size). The difference final size - initial size describes the growth or regression of the tumor. The measuring unit was ocular micrometer unit (omu). 10 omu is identical to 1.0 mm. In addition to the tumor size, the weight gain of the animals was measured. The weight gain describes the toxicity of the treatment. In general, the ratio final weight/ pretest weight should be more than 0.80. Otherwise the toxicity is considered unacceptable.

Ovarian ca. = settings: subrenal capsule assay, all tumor types
Procedure: as §3

CHO-K1 cells [7] = assay: Doxorubicin transport (accumulation) in CHO-K1 cells; type: cell-based; settings: 2 μM toremifene; 1 μM doxorubicin; wild-type CHO-K1
Lewis Lung (LL) tumor = assay: Schedule dependency of antitumor effect in Lewis Lung tumor; settings: toremifene 150 mg/kg p.o. days 1-5
Procedure: as §2

[8] = drug 3.0 μg/ml +1 μM doxorubicin

CN(C)CCOc1ccc(/C(=C(/CCCl)c2ccccc2)c2ccccc2)cc1 [toremifene]
Number of living cells (HOV-007; toremifene 1.0 μM): 95% of control values
Number of living cells (HOV-007; toremifene 3.0 μM): 71% of control values
Number of living cells (HOV-007; toremifene 10.0 μM): 66% of control values
MCC at 24 h (in vitro [1]): > 10 µM
Safety / toxicity in clinical use ([2]; at dose levels or concentrations required for MDR reversal): very safe drug
maximal tolerated dose ([2]; clinical phase I trials): 400 to 600 mg daily
Number of living cells (HOV-018; toremifene 1.0 μM, 4320 min): 104% of control values
Number of living cells (HOV-018; toremifene 3.0 μM): 99% of control values
Number of living cells (HOV-018; toremifene 10.0 μM, 4320 min): 97% of control values
Toremifene and doxorubicin in UV-me-1 (living cells) (Human melanoma UV-me-1; toremifene 0.5 μM): 97
Toremifene and doxorubicin in UV-me-1 (living cells) (Human melanoma UV-me-1; toremifene 5.0 μM): 32
Binding to α1-acid glycoprotein [3]: bound in some extent
Effectiveness in reversing MDR (MCF-7/DOX cells; MCF-7/DOX cells, Table 5 and FIG. 7): almost equally effective
Inhibition of cell growth, Actual (MCF-7/DOX cells; [8]): 38 % control
Potential (potentiation of doxorubicin activity) (MCF-7/DOX cells; [8]): 58 % control
Inhibition of cell growth, Actual (MCF-7/DOX cells; drug […] +1 μM doxorubicin): 31 % control
Potential (potentiation of doxorubicin activity) (MCF-7/DOX cells; drug […] +1 μM doxorubicin): 48 % control
MDR reversing effect in patients' sera (MCF-7/DOX): A clear concentration-dependency
Effect of AAG on toremifene toxicity (CHO-K1 cells [4]; AAG 2 mg/ml): protected both cell lines from toremifene toxicity
Effect of toremifene on doxorubicin toxicity at highest AAG level (CHO-K1 cells [4]; AAG 2 mg/ml): cell viability was no different from that when doxorubicin alone was present; also recorded: no longer any effect of toremifene on doxorubicin toxicity
AAG concentration above which potentiation by toremifene is gradually reversed (CHO-K1 cells [4]; doxorubicin + 10 μM toremifene): above 0.5 mg/ml
Potentiation of doxorubicin toxicity (CHO-K1 cells [4]; toremifene 1 to 10 μM): incremental potentiation of doxorubicin toxicity
Change of tumor size (B-16 melanoma): +3.2 mm
MCC at 24 h (in vitro [5]): > 10 µM
Potentiation of doxorubicin toxicity (CHO-Adr cells; CHO-Adr): the degree of potentiation was greater
Relative potentiation of doxorubicin toxicity, resistant vs wild-type (CHO-Adr cells; CHO-Adr vs CHO-K1, increasing concentrations of toremifene): far greater in the CHO-Adr cell line than in the parent cell line; also recorded: greater for the resistant than the wild-type cells
Effect of AAG on toremifene toxicity (CHO-Adr cells; CHO-Adr, AAG 2 mg/ml): protected both cell lines from toremifene toxicity
Effect of toremifene on doxorubicin toxicity at highest AAG level (CHO-Adr cells; CHO-Adr, AAG 2 mg/ml): cell viability was no different from that when doxorubicin alone was present; also recorded: no longer any effect of toremifene on doxorubicin toxicity
AAG concentration above which potentiation by toremifene is gradually reversed (CHO-Adr cells; CHO-Adr, doxorubicin + 10 μM toremifene): above 0.5 mg/ml
Increase of sensitivity to doxorubicin (CHO-Adr cells; CHO-K1 and CHO-Adr, toremifene concentrations not inhibiting cell growth on their own): can be increased by toremifene concentrations which do not inhibit cell growth on their own
Effect of toremifene addition on weight gain [6]: not influenced by toremifene addition
Sensitivity to cytotoxic drugs in human tumors (Ovarian ca.): can increase the sensitivity to cytotoxic drugs in human tumors
Drug accumulation of doxorubicin (CHO-K1 cells [7]): enhanced drug accumulation
Change of tumor diameter (Lewis Lung (LL) tumor): +5.4 mm
